Measured values published in ChEMBL document CHEMBL3885881, “DrugMatrix”.

Organism: Rattus norvegicus
Experiment: DrugMatrix - Regimen: Daily Repeat
Assay type: toxicity, organism-based, Sprague-Dawley
Design: regimen Daily Repeat, gender Male, age 6-8 weeks
Conditions: in vivo, po, route oral GAVAGE, vehicle 100 % SALINE; for ABSOLUTE BASOPHIL / ABSOLUTE EOSINOPHIL / ABSOLUTE LYMPHOCYTE / ABSOLUTE MONOCYTE / ABSOLUTE SEGMENTED NEUTROPHIL / BASOPHIL / EOSINOPHIL / ERYTHROCYTE COUNT / HEMATOCRIT / HEMOGLOBIN / LEUKOCYTE COUNT / LYMPHOCYTE / MEAN CORPUSCULAR HEMOGLOBIN / MEAN CORPUSCULAR HEMOGLOBIN CONCENTRATION / MONOCYTE / NEUTROPHIL / NUCLEATED RED BLOOD CELLS / PLATELET COUNT: tissue Blood; for ALANINE AMINOTRANSFERASE / ALBUMIN / ALKALINE PHOSPHATASE / ASPARTATE AMINOTRANSFERASE / BLOOD UREA NITROGEN / CARBON DIOXIDE / CHOLESTEROL / CREATINE PHOSPHOKINASE / CREATININE / GLUCOSE / LACTATE DEHYDROGENASE / LIPASE / POTASSIUM / SODIUM / TOTAL BILIRUBIN / TOTAL PROTEIN / URIC ACID: tissue Plasma
[1] = 330 mg/kg, 120 h, dose level Low, time 5 day
[2] = 980 mg/kg, 72 h, dose level High, time 3 day
[3] = 980 mg/kg, 120 h, dose level High, time 5 day

Nc1nc2c(ncn2COCCO)c(=O)[nH]1 [ACYCLOVIR]
ABSOLUTE BASOPHIL [1]: 0 CELLS/uL | ABSOLUTE EOSINOPHIL [1]: 23.33 CELLS/uL | ABSOLUTE LYMPHOCYTE [1]: 6827.33 CELLS/uL | ABSOLUTE MONOCYTE [1]: 23.33 CELLS/uL | ABSOLUTE SEGMENTED NEUTROPHIL [1]: 459.33 CELLS/uL | BASOPHIL [1]: 0% | EOSINOPHIL [1]: 0.33% | ERYTHROCYTE COUNT [1]: 5.77 x10E6/uL | HEMATOCRIT [1]: 36% | HEMOGLOBIN [1]: 13.93 G/DL | LEUKOCYTE COUNT [1]: 7.33 x10E3/uL | LYMPHOCYTE [1]: 92.67% | MEAN CORPUSCULAR HEMOGLOBIN [1]: 24.17 pg | MEAN CORPUSCULAR HEMOGLOBIN CONCENTRATION [1]: 38.7 G/DL | MONOCYTE [1]: 0.33% | NEUTROPHIL [1]: 6.67% | NUCLEATED RED BLOOD CELLS [1]: 0 /100WBC | PLATELET COUNT [1]: 980.67 x10E3/uL | ALANINE AMINOTRANSFERASE [1]: 54 u/L | ALBUMIN [1]: 4.1 G/DL | ALKALINE PHOSPHATASE [1]: 310 u/L | ASPARTATE AMINOTRANSFERASE [1]: 89.33 u/L | BLOOD UREA NITROGEN [1]: 14 mg/dL | CARBON DIOXIDE [1]: 31 mmol/L | CHOLESTEROL [1]: 71.33 mg/dL | CREATINE PHOSPHOKINASE [1]: 331 u/L | CREATININE [1]: 0.35 mg/dL | GLUCOSE [1]: 149.67 mg/dL | LACTATE DEHYDROGENASE [1]: 119.33 u/L | LIPASE [1]: 11.67 u/L | POTASSIUM [1]: 6.3 MEQ/L | SODIUM [1]: 145.23 MEQ/L | TOTAL BILIRUBIN [1]: 0.17 mg/dL | TOTAL PROTEIN [1]: 5.87 G/DL | URIC ACID [1]: 0.97 mg/dL | ABSOLUTE BASOPHIL [2]: 0 CELLS/uL | ABSOLUTE EOSINOPHIL [2]: 28.33 CELLS/uL | ABSOLUTE LYMPHOCYTE [2]: 6898 CELLS/uL | ABSOLUTE MONOCYTE [2]: 45.67 CELLS/uL | ABSOLUTE SEGMENTED NEUTROPHIL [2]: 428 CELLS/uL | BASOPHIL [2]: 0% | EOSINOPHIL [2]: 0.33% | ERYTHROCYTE COUNT [2]: 5.27 x10E6/uL | HEMATOCRIT [2]: 32.97% | HEMOGLOBIN [2]: 12.8 G/DL | LEUKOCYTE COUNT [2]: 7.4 x10E3/uL | LYMPHOCYTE [2]: 93% | MEAN CORPUSCULAR HEMOGLOBIN [2]: 24.37 pg | MEAN CORPUSCULAR HEMOGLOBIN CONCENTRATION [2]: 38.87 G/DL | MONOCYTE [2]: 0.67% | NEUTROPHIL [2]: 6% | NUCLEATED RED BLOOD CELLS [2]: 0 /100WBC | PLATELET COUNT [2]: 1125.67 x10E3/uL | ALANINE AMINOTRANSFERASE [2]: 47.33 u/L | ALBUMIN [2]: 4.07 G/DL | ALKALINE PHOSPHATASE [2]: 321 u/L | ASPARTATE AMINOTRANSFERASE [2]: 79.33 u/L | BLOOD UREA NITROGEN [2]: 12.67 mg/dL | CARBON DIOXIDE [2]: 28.33 mmol/L | CHOLESTEROL [2]: 67.33 mg/dL | CREATINE PHOSPHOKINASE [2]: 458 u/L | CREATININE [2]: 0.23 mg/dL | GLUCOSE [2]: 154 mg/dL | LACTATE DEHYDROGENASE [2]: 123 u/L | LIPASE [2]: 9.67 u/L | POTASSIUM [2]: 5.85 MEQ/L | SODIUM [2]: 142.43 MEQ/L | TOTAL BILIRUBIN [2]: 0.17 mg/dL | TOTAL PROTEIN [2]: 5.77 G/DL | URIC ACID [2]: 0.9 mg/dL | ABSOLUTE BASOPHIL [3]: 0 CELLS/uL | ABSOLUTE EOSINOPHIL [3]: 32 CELLS/uL | ABSOLUTE LYMPHOCYTE [3]: 9269.33 CELLS/uL | ABSOLUTE MONOCYTE [3]: 115 CELLS/uL | ABSOLUTE SEGMENTED NEUTROPHIL [3]: 383.67 CELLS/uL | BASOPHIL [3]: 0% | EOSINOPHIL [3]: 0.33% | ERYTHROCYTE COUNT [3]: 5.83 x10E6/uL | HEMATOCRIT [3]: 35.13% | HEMOGLOBIN [3]: 13.9 G/DL | LEUKOCYTE COUNT [3]: 9.8 x10E3/uL | LYMPHOCYTE [3]: 94.33% | MEAN CORPUSCULAR HEMOGLOBIN [3]: 23.83 pg | MEAN CORPUSCULAR HEMOGLOBIN CONCENTRATION [3]: 39.6 G/DL | MONOCYTE [3]: 1.33% | NEUTROPHIL [3]: 4% | NUCLEATED RED BLOOD CELLS [3]: 0.33 /100WBC | PLATELET COUNT [3]: 783 x10E3/uL | ALANINE AMINOTRANSFERASE [3]: 46.67 u/L | ALBUMIN [3]: 4.17 G/DL | ALKALINE PHOSPHATASE [3]: 320.33 u/L | ASPARTATE AMINOTRANSFERASE [3]: 74 u/L | BLOOD UREA NITROGEN [3]: 15.67 mg/dL | CARBON DIOXIDE [3]: 29.33 mmol/L | CHOLESTEROL [3]: 57.67 mg/dL | CREATINE PHOSPHOKINASE [3]: 253.33 u/L | CREATININE [3]: 0.44 mg/dL | GLUCOSE [3]: 155.67 mg/dL | LACTATE DEHYDROGENASE [3]: 135.67 u/L | LIPASE [3]: 12 u/L | POTASSIUM [3]: 5.65 MEQ/L | SODIUM [3]: 145.17 MEQ/L | TOTAL BILIRUBIN [3]: 0.17 mg/dL | TOTAL PROTEIN [3]: 5.83 G/DL | URIC ACID [3]: 0.83 mg/dL
